Laboratory results taken from ChEMBL document CHEMBL2095176, “GSK Tuberculosis Screening Data”.
Values after ≈ are worked out from the molar mass of the structure shown.

Assays:
physchem [1] = settings: phosphate buffered saline, pH 7.4
physchem [2] = settings: buffer, pH 7.4
Description: GSK_TB: GSK in-house hydrophobicity assay at pH7.4 (logD)

physchem [3] = settings: octanol/water
Description: GSK_TB: GSK in-house hydrophobicity assay (logP)

[4] = tested on: Mycobacterium tuberculosis H37Rv; test: microbe, parasite or virus in culture
Description: GSK_TB: Intracellular minimum inhibitory concentration (MIC) H37Rv assay

Compound	solubility kinetic (physchem [1])	logD (physchem [2])	logP (physchem [3])	MIC90 [4]
N=C(N)c1ccc(CCN2CCC(c3nc(COCC(F)(F)F)c(-c4ccc(F)cc4)o3)CC2)cc1.O=C(O)C(F)(F)F.O=C(O)C(F)(F)F	255 µM	3.76	6.14	6.17 µM
O=C(NC(Cc1ccccc1)C(=O)Nc1ccccc1N1CCOCC1)c1cccs1 (stereo unspecified)	64 µM (≈ 27.9 µg/mL)	5.53	5.78	7.6 µM (≈ 3.31 µg/mL)
CCc1ccc(Nc2nnc(SCc3cc(C)on3)s2)cc1	1 µM (≈ 0.332 µg/mL)	5.72	5.98	2.8 µM (≈ 0.931 µg/mL)
O=C(O)C(F)(F)F.c1ccc(C[C@H]2CN(c3nccc(Oc4ccc(-n5ccnc5)cc4)n3)CCN2)cc1	260 µM	3.58	4.33	1.8 µM
Cc1n[nH]c(C)c1S(=O)(=O)NCc1nc(NCCCc2ccccc2)c2ccccc2n1	240 µM (≈ 108 µg/mL)	4.32	4.52	1.8 µM (≈ 0.811 µg/mL)
CN(C)S(=O)(=O)c1ccc(C(=O)Nc2nnc(-c3ccc(Cl)s3)o2)cc1	177 µM (≈ 73.1 µg/mL)	2.83	4.69	5.82 µM (≈ 2.4 µg/mL)
COc1ccccc1OCCCCn1c(C2CC2)nc2ccccc21	167 µM (≈ 56.2 µg/mL)	5.63	5.83	3.4 µM (≈ 1.14 µg/mL)
Cc1ccc2[nH]c(C3CCCNC3)c(-c3ccncc3)c2c1 (stereo unspecified)	267 µM (≈ 77.8 µg/mL)	2.18	3.72	7.67 µM (≈ 2.24 µg/mL)
COc1ccc2nc(C)cc(OCC(=O)NCc3ccccc3)c2c1	96 µM (≈ 32.3 µg/mL)	3.86	3.92	1.1 µM (≈ 0.37 µg/mL)
Cc1ccc2nc(C(F)(F)F)c(C(=O)NCc3ccco3)n2c1	159 µM (≈ 51.4 µg/mL)	4.32	4.48	3.89 µM (≈ 1.26 µg/mL)
COc1cc(C(F)(F)F)nc2ccc(C)c(N)c12	446 µM (≈ 114 µg/mL)	4.97	5.13	5.3 µM (≈ 1.36 µg/mL)
O=C(NC1=NCCS1)c1sc2cc(F)ccc2c1Cl	1 µM (≈ 0.315 µg/mL)	5.16	5.49	8.61 µM (≈ 2.71 µg/mL)
Cc1ccc(SCCNC(=O)c2c(-c3ccccc3)noc2C)cc1	50 µM (≈ 17.6 µg/mL)	6.37	6.68	7.76 µM (≈ 2.74 µg/mL)
Cc1occc1C(=O)Nc1nc(-c2ccccn2)nc2ccsc12	105 µM (≈ 35.3 µg/mL)	4.79	4.93	4 µM (≈ 1.35 µg/mL)
c1ccc(-c2nnc(Sc3ccnc(N4CCN(c5ccncc5)CC4)n3)n2CCCN2CCOCC2)nc1	154 µM (≈ 83.9 µg/mL)	2.08	3.22	6.38 µM (≈ 3.48 µg/mL)
CC(=O)NCCn1c(Sc2ccnc(N3CCN(c4ccncc4)CC3)n2)nnc1-c1ccccc1	135 µM (≈ 67.7 µg/mL)	1.06	1.82	8.91 µM (≈ 4.47 µg/mL)
c1csc(-c2nnc(Sc3ccnc(N4CCN(c5ccncc5)CC4)n3)n2CCCN2CCOCC2)c1	185 µM (≈ 102 µg/mL)	2.08	3.12	3.43 µM (≈ 1.88 µg/mL)
Cc1ccc2nc(C)c(-c3ccn(Cc4ccccc4)n3)n2c1	120 µM (≈ 36.3 µg/mL)	5.16	5.54	5 µM (≈ 1.51 µg/mL)
Cc1ccc2nc(C(F)(F)F)c(C(=O)NCc3ccc(C)o3)n2c1	259 µM (≈ 87.4 µg/mL)	4.97	5.18	3.43 µM (≈ 1.16 µg/mL)
c1cncc(NCc2ccc(-c3cc4ccncc4cc3OC3CCNCC3)s2)c1	167 µM (≈ 69.6 µg/mL)	1.9	4.23	8.61 µM (≈ 3.59 µg/mL)

Compound	solubility kinetic (physchem [1])	logD (physchem [2])	logP (physchem [3])	MIC90 [4]
O=C(NCc1ccc2c(c1)OCO2)c1c(C(F)(F)F)nc2ccccn12	115 µM (≈ 41.8 µg/mL)	4.23	4.38	3.3 µM (≈ 1.2 µg/mL)
COc1ccc(Nc2ccccc2NC(=O)c2ccc(O)nc2)cc1	362 µM (≈ 121 µg/mL)	2.92	2.97	7.08 µM (≈ 2.37 µg/mL)
O=C(NCc1cc(Cl)cc(Cl)c1)c1c(C(F)(F)F)nc2ccccn12	1 µM (≈ 0.388 µg/mL)	6.09	6.48	3.1 µM (≈ 1.2 µg/mL)
c1ccc(-c2csc(Nc3nc4cc5c(cc4s3)OCO5)n2)nc1	1 µM (≈ 0.354 µg/mL)	5.07	5.06	2.7 µM (≈ 0.957 µg/mL)
Cc1nc2ccccn2c1C(=O)NCc1cccs1	365 µM (≈ 99 µg/mL)	2.92	2.93	9.02 µM (≈ 2.45 µg/mL)
COc1cc(CN2CCC3(C=Cc4ccccc43)CC2)cc2c1OCO2	121 µM (≈ 42.3 µg/mL)	7.03	8.25	9.5 µM (≈ 3.32 µg/mL)
FC(F)(F)c1cc(SCc2ccccc2)nc(-c2ccccn2)n1	1 µM (≈ 0.347 µg/mL)	7.12	7.54	3.3 µM (≈ 1.15 µg/mL)
Cc1nnc(NCc2cccc(Cl)c2)c2ccccc12	127 µM (≈ 36 µg/mL)	4.32	4.52	5.9 µM (≈ 1.67 µg/mL)
Cc1ccc2nc(C(F)(F)F)c(C(=O)NCc3cc(Cl)cc(Cl)c3)n2c1	1 µM (≈ 0.402 µg/mL)	6.65	7.04	0.9 µM (≈ 0.362 µg/mL)
Cl.Cl.O=C(Nc1ccc(NC2=NCCN2)cc1)c1ccc(C(=O)Nc2ccc(NC3=NCCN3)cc2)cc1	26 µM	0.12	0.918	1.6 µM
CCc1nc2ccccc2n1CC(O)COc1cc(C)ccc1Cl (stereo unspecified)	1 µM (≈ 0.345 µg/mL)	5.35	5.63	8.81 µM (≈ 3.04 µg/mL)
Cc1cccc(Cn2ccc(NC(=O)c3ccc4c(c3)OCO4)n2)c1	80 µM (≈ 26.8 µg/mL)	5.07	5.27	3.7 µM (≈ 1.24 µg/mL)
Br.CC(C)(C)c1ccccc1OCCCON1C(=N)N=C(N)NC1(C)C	363 µM	4.04	6.14	2.3 µM
COc1ccc2sc(Nc3nc(-c4ccccn4)cs3)nc2c1	22 µM (≈ 7.49 µg/mL)	5.35	5.34	8.2 µM (≈ 2.79 µg/mL)
C[C@@H](NCCc1nc(-c2cn(C)c3ccccc23)no1)C1CCCCC1.Cl	202 µM	6.56	8.75	1.15 µM
CSc1ccc(-c2nnc(NC(=O)c3ccc(Cl)s3)o2)cc1	67 µM (≈ 23.6 µg/mL)	3.76	6.07	6.61 µM (≈ 2.32 µg/mL)
Brc1c(-c2ccc3c(c2)OCO3)nc2ncccn12	219 µM (≈ 69.7 µg/mL)	3.48	3.48	4.7 µM (≈ 1.5 µg/mL)
COc1cc(Nc2ccccc2)ccc1NS(=O)(=O)c1c(C)noc1C	53 µM (≈ 19.8 µg/mL)	5.53	5.78	6.1 µM (≈ 2.28 µg/mL)
CNc1nc(SCC(=O)N(C)Cc2ccc(Cl)s2)nc2ccccc12	56 µM (≈ 22 µg/mL)	5.07	5.23	5.62 µM (≈ 2.21 µg/mL)
NC(=O)c1cc(-c2ccsc2)ccc1OCCOc1ccccc1	1 µM (≈ 0.339 µg/mL)	5.44	5.78	3.5 µM (≈ 1.19 µg/mL)

Compound	solubility kinetic (physchem [1])	logD (physchem [2])	logP (physchem [3])	MIC90 [4]
Cc1cc(OCC(=O)Nc2ccccc2)c2cc(Br)ccc2n1	16 µM (≈ 5.94 µg/mL)	5.25	5.44	3.3 µM (≈ 1.23 µg/mL)
CCN(Cc1ccc2c(c1)OCO2)C(=O)CSc1nc(NC)c2ccccc2n1	74 µM (≈ 30.4 µg/mL)	4.69	4.83	2.8 µM (≈ 1.15 µg/mL)
CCOc1ccc(-c2nc(CNCCc3ccc(F)cc3)cs2)cc1.O=C(O)C(=O)O	159 µM	6.09	7.45	1.07 µM
N=C(Nc1nc(-c2ccccn2)cc2ccccc12)c1cccc(Cl)c1	1 µM (≈ 0.359 µg/mL)	8.24	8.64	4.5 µM (≈ 1.61 µg/mL)
Brc1cncc(-c2cc(NCCCn3ccnc3)nc(-c3ccccc3)n2)c1	15 µM (≈ 6.53 µg/mL)	5.53	5.83	5.19 µM (≈ 2.26 µg/mL)
Fc1ccccc1-c1noc(N2CCN(Cc3ccc4c(c3)OCO4)CC2)n1	10 µM (≈ 3.82 µg/mL)	6.56	6.94	5.2 µM (≈ 1.99 µg/mL)
Cc1nc2ccccn2c1C(=O)NCc1ccccc1	403 µM (≈ 107 µg/mL)	3.2	3.2	2 µM (≈ 0.531 µg/mL)
Nc1nc2cc(-c3cncc(Oc4ccc(F)cc4)c3)ccc2[nH]1.O=C(O)C(F)(F)F.O=C(O)C(F)(F)F	100 µM	3.11	3.12	0.347 µM
Cc1nn(Cc2ccccc2)c(Cl)c1C(=O)NC1CCCCCC1	28 µM (≈ 9.68 µg/mL)	6.75	7.04	5.2 µM (≈ 1.8 µg/mL)
Nc1nc(N)c2c(Sc3ccc4ccccc4c3)cccc2n1	32 µM (≈ 10.2 µg/mL)	4.41	4.72	8.71 µM (≈ 2.77 µg/mL)
Cc1nc2ccccn2c1C(=O)Nc1ccc(C(C)(C)C)cc1	85 µM (≈ 26.1 µg/mL)	5.81	6.03	6.2 µM (≈ 1.91 µg/mL)
O=C(N[C@@H](Cc1ccccc1)C(=O)Nc1ccccc1N1CCOCC1)c1cccs1	52 µM (≈ 22.6 µg/mL)	5.53	5.78	6.6 µM (≈ 2.87 µg/mL)
c1ccc(-c2nc(NC3CCCCC3)cc(C3CC3)n2)nc1	302 µM (≈ 88.9 µg/mL)	6.09	6.74	7.08 µM (≈ 2.08 µg/mL)
Cc1cc(OCC(=O)NCc2ccccc2)c2cc(Br)ccc2n1	15 µM (≈ 5.78 µg/mL)	4.97	5.13	2.3 µM (≈ 0.886 µg/mL)
Nc1cccnc1Nc1ccc(C(F)(F)F)cc1	328 µM (≈ 83.1 µg/mL)	4.97	5.03	2.24 µM (≈ 0.567 µg/mL)
CCCc1ccc(S(=O)(=O)Nc2ccc(CN3CCN(CC4CC4)CC3)cc2)cc1.O=C(O)C(F)(F)F.O=C(O)C(F)(F)F	318 µM	4.69	5.54	7.76 µM
CCOc1ccc(OCc2ccc(C(=O)NNC(=O)c3ccc([N+](=O)[O-])o3)cc2)cc1	1 µM (≈ 0.425 µg/mL)	4.32	4.88	2.5 µM (≈ 1.06 µg/mL)
O=C(c1cc2ccccc2o1)N1CCN(Cc2ccc3c(c2)OCO3)CC1	171 µM (≈ 62.3 µg/mL)	5.63	5.83	2.7 µM (≈ 0.984 µg/mL)
c1ccc(CCNc2cc(-c3ccccc3)nc3nncn23)cc1	6 µM (≈ 1.89 µg/mL)	4.97	5.13	5.5 µM (≈ 1.73 µg/mL)
